The assay deals with NaV1.3 (Homo sapiens, UniProt Q9NY46). Briefly: VIPR optical membrane potential assay, NaV1.3 inhibition. Particulars: activity against NaV 1.3 channel. Further details: expressed in transfected cells; host or cells: HEK293. The class given is cell-based. Here is the method: Antagonist properties of test compounds were assessed as follows. Cells expressing the NaV of interest were placed into microtiter plates. After an incubation period, the cells were stained with fluorescent dyes sensitive to the transmembrane potential. The test compounds were added to the microtiter plate. The cells were stimulated with either a chemical or electrical means to evoke a NaV dependent membrane potential change from unblocked channels, which was detected and measured with trans-membrane potential-sensitive dyes. Antagonists were detected as a decreased membrane potential response to the stimulus.
NaV1.3, sequence (Q9NY46 whole entry): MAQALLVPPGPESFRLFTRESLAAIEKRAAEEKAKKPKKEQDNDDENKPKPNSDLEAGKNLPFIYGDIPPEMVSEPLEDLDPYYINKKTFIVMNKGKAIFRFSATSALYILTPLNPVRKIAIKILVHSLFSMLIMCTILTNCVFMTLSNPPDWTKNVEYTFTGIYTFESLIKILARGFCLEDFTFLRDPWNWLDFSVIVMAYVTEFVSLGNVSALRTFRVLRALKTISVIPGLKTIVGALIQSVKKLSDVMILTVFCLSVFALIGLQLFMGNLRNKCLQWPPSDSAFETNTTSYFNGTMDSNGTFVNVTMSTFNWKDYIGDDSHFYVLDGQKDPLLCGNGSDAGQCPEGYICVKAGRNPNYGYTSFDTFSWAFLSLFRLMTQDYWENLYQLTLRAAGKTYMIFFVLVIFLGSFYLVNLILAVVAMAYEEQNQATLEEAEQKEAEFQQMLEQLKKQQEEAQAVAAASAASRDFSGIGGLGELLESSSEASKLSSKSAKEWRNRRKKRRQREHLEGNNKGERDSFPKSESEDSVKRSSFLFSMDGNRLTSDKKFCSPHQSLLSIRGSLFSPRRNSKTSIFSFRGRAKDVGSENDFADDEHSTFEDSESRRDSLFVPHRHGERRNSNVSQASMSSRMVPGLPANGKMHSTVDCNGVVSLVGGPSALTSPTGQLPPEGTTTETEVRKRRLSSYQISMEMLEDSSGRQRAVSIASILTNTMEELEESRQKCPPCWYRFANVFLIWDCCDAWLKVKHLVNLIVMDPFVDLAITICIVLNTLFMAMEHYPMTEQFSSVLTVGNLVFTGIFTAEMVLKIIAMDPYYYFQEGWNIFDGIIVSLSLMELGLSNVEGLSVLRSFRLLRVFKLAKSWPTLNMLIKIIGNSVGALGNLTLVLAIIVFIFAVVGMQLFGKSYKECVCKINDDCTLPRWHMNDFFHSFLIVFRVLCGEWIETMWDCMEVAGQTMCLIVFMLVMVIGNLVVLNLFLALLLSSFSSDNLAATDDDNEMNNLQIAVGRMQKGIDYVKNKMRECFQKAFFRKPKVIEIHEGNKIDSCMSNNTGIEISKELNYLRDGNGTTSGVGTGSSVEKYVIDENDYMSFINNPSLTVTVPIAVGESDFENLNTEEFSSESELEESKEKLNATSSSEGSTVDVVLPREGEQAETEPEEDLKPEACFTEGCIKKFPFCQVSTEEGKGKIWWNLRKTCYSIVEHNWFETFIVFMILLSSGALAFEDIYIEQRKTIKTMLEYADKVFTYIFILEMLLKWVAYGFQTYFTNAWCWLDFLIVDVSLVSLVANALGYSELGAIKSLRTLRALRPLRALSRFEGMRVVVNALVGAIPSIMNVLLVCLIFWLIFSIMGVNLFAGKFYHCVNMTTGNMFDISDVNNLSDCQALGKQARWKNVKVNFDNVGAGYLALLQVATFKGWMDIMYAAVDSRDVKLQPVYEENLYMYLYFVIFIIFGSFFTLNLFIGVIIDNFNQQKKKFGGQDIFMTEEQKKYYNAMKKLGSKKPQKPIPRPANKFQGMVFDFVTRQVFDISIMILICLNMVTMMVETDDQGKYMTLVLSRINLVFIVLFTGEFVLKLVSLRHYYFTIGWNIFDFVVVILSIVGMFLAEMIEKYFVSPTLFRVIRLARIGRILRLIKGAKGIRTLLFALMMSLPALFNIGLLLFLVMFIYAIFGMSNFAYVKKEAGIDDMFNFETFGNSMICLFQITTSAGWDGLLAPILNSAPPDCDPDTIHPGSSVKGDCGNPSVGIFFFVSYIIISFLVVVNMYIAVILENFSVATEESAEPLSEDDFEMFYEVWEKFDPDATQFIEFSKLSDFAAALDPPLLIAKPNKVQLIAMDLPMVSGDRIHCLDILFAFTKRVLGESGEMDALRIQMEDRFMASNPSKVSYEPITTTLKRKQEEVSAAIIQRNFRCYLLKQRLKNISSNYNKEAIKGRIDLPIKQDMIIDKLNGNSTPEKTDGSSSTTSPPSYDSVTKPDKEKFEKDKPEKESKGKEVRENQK
The following is an example of how NaV1.3 inhibition activity is measured using the optical membrane potential method#2. Other subtypes are performed in an analogous mode in a cell line expressing the NaV of interest.
HEK293 cells stably expressing NaV1.3 are plated into 96-well microtiter plates. After an appropriate incubation period, the cells are stained with the voltage sensitive dyes CC2-DMPE/DiSBAC2(3) as follows.
2× CC2-DMPE=20 μM CC2-DMPE: 10 mM CC2-DMPE is vortexed with an equivalent volume of 10% pluronic, followed by vortexing in required amount of HBSS containing 10 mM HEPES. Each cell plate will require 5 mL of 2× CC2-DMPE. 50 μL of 2× CC2-DMPE is to wells containing washed cells, resulting in a 10 μM final staining concentration. The cells are stained for 30 minutes in the dark at RT.
2× DISBAC2(3) with ABSC1=6 μM DISBAC2(3) and 1 mM ABSC1: The required amount of 10 mM DISBAC2(3) is added to a 50 ml conical tube and mixed with 1 μL 10% pluronic for each mL of solution to be made and vortexed together. Then HBSS/HEPES is added to make up 2× solution. Finally, the ABSC1 is added.
The 2× DiSBAC2(3) solution can be used to solvate compound plates. Note that compound plates are made at 2× drug concentration. Wash stained plate again, leaving residual volume of 50 μL. Add 50 μL/well of the 2× DiSBAC2(3) w/ABSC1. Stain for 30 minutes in the dark at RT.
The instrument comprises a microtiter plate handler, an optical system for exciting the coumarin dye while simultaneously recording the coumarin and oxonol emissions, a waveform generator, a current- or voltage-controlled amplifier, and a device for inserting electrodes in well. Under integrated computer control, this instrument passes user-programmed electrical stimulus protocols to cells within the wells of the microfilter plate.
Insert or use electrodes into each well to be assayed.
Use the current-controlled amplifier to deliver stimulation wave pulses for 3 s. Two seconds of pre-stimulus recording are performed to obtain the un-stimulated intensities. Five seconds of post-stimulation recording are performed to examine the relaxation to the resting state.
Data are analyzed and reported as normalized ratios of background-subtracted emission intensities measured in the 460 nm and 580 nm channels. Background intensities are then subtracted from each assay channel. Background intensities are obtained by measuring the emission intensities during the same time periods from identically treated assay wells in which there are no cells. The response as a function of time is then reported as the ratios obtained using the following formula: […]
The data is further reduced by calculating the initial (Ri) and final (Rf) ratios. These are the average ratio values during part or all of the pre-stimulation period, and during sample points during the stimulation period. The response to the stimulus ? =Rf/Ri is then calculated.
Control responses are obtained by performing assays in the presence of a compound with the desired properties (positive control), such as tetracaine, and in the absence of pharmacological agents (negative control). Responses to the negative (N) and positive (P) controls are calculated as above. The compound antagonist activity A is defined as:
[formula] where R is the ratio response of the test compound.
What is called IC50 is the concentration at which inhibition is half-maximal. A higher IC50 goes with lower potency. The compound `O=C(COc1ccnc2c(C(F)(F)F)cccc12)N1Cc2ccc(S(=O)(=O)Nc3ncns3)cc2C1` [Compound 122] gave an IC50 of under 2000 nM.
As for `O=C(c1ccccc1F)N1CCc2ccc(S(=O)(=O)Nc3nccs3)cc2C1` [Compound 123], the IC50 was 2000 to 5000 nM.
Turning to `C[C@@H](C(=O)N1Cc2ccc(S(=O)(=O)Nc3ncns3)cc2C1)n1ccc2c(F)cccc21` [Compound 124], the IC50 is under 2000 nM.
As for `CC(Oc1ccccc1)C(=O)N1CCc2cc(S(=O)(=O)Nc3ncns3)ccc21` (stereo not drawn) [Compound 125], the IC50 is under 2000 nM.
Under `O=C(c1ccc(Cl)c(Cl)c1)n1ccc2cc(S(=O)(=O)Nc3nccs3)ccc21` [Compound 126] stands 2000 to 5000 nM.
The compound `O=C(CCn1ccc2cc(Cl)ccc21)N1Cc2ccc(S(=O)(=O)Nc3ncns3)cc2C1` [Compound 127] displayed an IC50 of under 2000 nM.
As to `Cc1ccc(C(=O)n2ccc3cc(S(=O)(=O)Nc4nccs4)ccc32)cc1F` [Compound 128], the half-maximal inhibitory concentration (IC50) was under 2000 nM.
Regarding `O=C(COc1cccnc1)N1CCc2cc(S(=O)(=O)Nc3nccs3)ccc21` [Compound 129], the concentration for half-maximal inhibition (IC50) is over 5000 nM.
Take `C[C@@H](C(=O)N1CCc2cc(S(=O)(=O)Nc3ncns3)ccc21)n1ccc2ccccc21` [Compound 130]: the IC50 was over 5000 nM.
`O=C(COc1cccc(Cl)c1)N1CCc2cc(S(=O)(=O)Nc3nccs3)ccc21` [Compound 131]: the IC50 was under 2000 nM.
With `O=C(c1ccc(C(F)(F)F)cc1)N1CCCc2cc(S(=O)(=O)Nc3nccs3)ccc21` [Compound 132] the figure was 2000 to 5000 nM; with `O=C(CN1CCCc2cc(Cl)ccc21)N1CCc2cc(S(=O)(=O)Nc3ccncn3)ccc21` [Compound 133], over 5000 nM; with `Cc1ccccc1OCC(=O)N1CCc2cc(S(=O)(=O)Nc3nccs3)ccc21` [Compound 134], under 2000 nM.
The compound `CCc1nnc(NS(=O)(=O)c2ccc3c(c2)CN(C(=O)[C@@H](C)N2CCCc4cc(Cl)ccc42)C3)s1` [Compound 135] gave an IC50 of 2000 to 5000 nM.
Turning to `O=C(Cc1c(Cl)cccc1Cl)N1CCc2cc(S(=O)(=O)Nc3nccs3)ccc21` [Compound 136], the half-maximal inhibitory concentration (IC50) is under 2000 nM.
Regarding `O=C(CN1CCc2ccc(F)cc2C1)N1CCc2cc(S(=O)(=O)Nc3nccs3)ccc21` [Compound 137], the IC50 was under 2000 nM.
The compound `Cc1cccc(C)c1OCC(=O)N1CCc2cc(S(=O)(=O)Nc3nccs3)ccc21` [Compound 138] gave an IC50 of under 2000 nM.
Under `CC(C)(C)c1ccc(OCC(=O)N2CCCc3cc(S(=O)(=O)Nc4ncns4)ccc32)cc1` [Compound 139] stands under 2000 nM.
As for `O=C(COc1ccnc2c(C(F)(F)F)cccc12)N1CCc2ccc(S(=O)(=O)Nc3nccs3)cc2C1` [Compound 140], the IC50 was under 2000 nM.
The compound `CC(Oc1ccc(OC(F)(F)F)cc1)C(=O)N1CCc2ccc(S(=O)(=O)Nc3nccs3)cc2C1` (stereo not drawn) [Compound 141] came in with an IC50 of over 5000 nM.
Under `C[C@@H](C(=O)N1CCc2cc(S(=O)(=O)Nc3ncns3)ccc21)n1ccc2c(F)cccc21` [Compound 142] stands under 2000 nM.
Turning to `O=C(CNc1ccccc1F)N1CCc2cc(S(=O)(=O)Nc3nccs3)ccc21` [Compound 144], the IC50 was under 2000 nM.
Under `C[C@H](C(=O)N1Cc2ccc(S(=O)(=O)Nc3ccc(Cl)nn3)cc2C1)N1CCCc2cc(Cl)ccc21` [Compound 146] stands over 5000 nM; under `O=C(COc1ccc(Cl)cc1)N1CCc2cc(S(=O)(=O)Nc3ncns3)ccc21` [Compound 147], under 2000 nM.
Under `CC(Oc1ccccc1Cl)C(=O)N1CCc2cc(S(=O)(=O)Nc3nccs3)ccc21` (stereo not drawn) [Compound 148] stands under 2000 nM; under `O=C(COc1ccccc1Cl)N1CCc2ccc(S(=O)(=O)Nc3nccs3)cc2C1` [Compound 149], under 2000 nM; under `CC(C)(C)c1ccc(OCC(=O)N2CCc3ccc(S(=O)(=O)Nc4nccs4)cc3C2)cc1` [Compound 150], over 5000 nM.
On to `O=C(c1ccc(Cl)cc1Cl)N1CCc2ccc(S(=O)(=O)Nc3nccs3)cc2C1` [Compound 151], for which the IC50 fell in the range of 2000 to 5000 nM.
Under `Cc1nnc(NS(=O)(=O)c2ccc3c(c2)CN(C(=O)COc2ccnc4c(C(F)(F)F)cccc24)CC3)s1` [Compound 152] stands over 5000 nM; under `O=C(CN1CCC(F)(F)CC1)N1CCc2cc(S(=O)(=O)Nc3nccs3)ccc21` [Compound 153], over 5000 nM; under `O=C(COc1ccc(F)c(Cl)c1)N1CCCc2cc(S(=O)(=O)Nc3nccs3)ccc21` [Compound 154], under 2000 nM.
Under `CC(C)(C)c1ccc(OCC(=O)N2Cc3ccc(S(=O)(=O)Nc4nccs4)cc3C2)cc1` [Compound 155] stands under 2000 nM.
For the compound `O=C(CCCOc1ccc(Cl)cc1Cl)N1CCc2cc(S(=O)(=O)Nc3ncccn3)ccc21` [Compound 156], the IC50 is over 5000 nM.
In the case of `O=S(=O)(Nc1nccs1)c1ccc2c(c1)CCN2CCNc1nc2ccccc2s1` [Compound 157], the IC50 is over 5000 nM.
Under `COc1ccc(CCC(=O)N2CCc3cc(S(=O)(=O)Nc4nccs4)ccc32)cc1` [Compound 159] stands under 2000 nM; under `CC(Oc1ccccc1Cl)C(=O)n1ccc2cc(S(=O)(=O)Nc3nccs3)ccc21` (stereo not drawn) [Compound 160], 2000 to 5000 nM.
Compound `O=C(CNC1CCC1)N1CCc2cc(S(=O)(=O)Nc3nccs3)ccc21` [Compound 161] displayed an IC50 of over 5000 nM.
Compound `O=C(c1cc(Cl)ccc1Cl)n1ccc2cc(S(=O)(=O)Nc3nccs3)ccc21` [Compound 162] gave an IC50 of 2000 to 5000 nM.
`O=C(Oc1ccccc1)N1CCc2cc(S(=O)(=O)Nc3nccs3)ccc21` [Compound 163] displayed an IC50 of 2000 to 5000 nM.
Regarding `C[C@@H](C(=O)N1Cc2ccc(S(=O)(=O)Nc3ncns3)cc2C1)n1ccc2ccccc21` [Compound 164], the half-inhibitory concentration (IC50) was under 2000 nM.
For the compound `COc1cccc(NCC(=O)N2CCc3cc(S(=O)(=O)Nc4nccs4)ccc32)c1` [Compound 165], the IC50 was over 5000 nM.
`O=C(c1ccc(C(F)(F)F)cc1)N1CCc2cc(S(=O)(=O)Nc3nccs3)ccc21` [Compound 166] registered a half-inhibitory concentration (IC50) of under 2000 nM.
`O=C(COc1ccc(OC(F)(F)F)cc1)N1CCc2cc(S(=O)(=O)Nc3ncns3)ccc21` [Compound 167] came in with an IC50 of under 2000 nM.
As to `COc1ccc(CC(=O)N2CCc3ccc(S(=O)(=O)Nc4nccs4)cc3C2)cc1` [Compound 168], the 50% inhibitory concentration (IC50) was over 5000 nM.
The compound `O=C(CN1CCC(F)(F)C1)N1CCCc2cc(S(=O)(=O)Nc3nccs3)ccc21` [Compound 169] displayed an IC50 of over 5000 nM.
In the case of `O=C(CNCc1ccncc1)N1CCc2cc(S(=O)(=O)Nc3nccs3)ccc21` [Compound 171], the IC50 is over 5000 nM.
For `O=C(CCn1ccc2cc(Cl)ccc21)N1CCc2cc(S(=O)(=O)Nc3ncns3)ccc21` [Compound 172], the IC50 is under 2000 nM.
`CC(C)(Oc1ccc(Cl)cc1)C(=O)n1ccc2cc(S(=O)(=O)Nc3nccs3)ccc21` [Compound 173]: the IC50 is 2000 to 5000 nM.
Under `CC(Oc1cccc(Cl)c1)C(=O)N1CCc2ccc(S(=O)(=O)Nc3nccs3)cc2C1` (stereo not drawn) [Compound 174] stands 2000 to 5000 nM; under `O=C(CN1CCC(F)(F)CC1)N1CCCc2cc(S(=O)(=O)Nc3nccs3)ccc21` [Compound 175], over 5000 nM.
With `O=C(c1ccccc1C(F)(F)F)n1ccc2cc(S(=O)(=O)Nc3nccs3)ccc21` [Compound 176] the figure was 2000 to 5000 nM; with `O=C(CCn1ccc2cc(Cl)ccc21)N1Cc2ccc(S(=O)(=O)Nc3nccs3)cc2C1` [Compound 177], under 2000 nM; with `COc1cc(C(=O)N2CCc3cc(S(=O)(=O)Nc4nccs4)ccc32)ccc1C` [Compound 178], 2000 to 5000 nM.
As to `Cc1ccc(C(=O)N2CCc3cc(S(=O)(=O)Nc4ncns4)ccc32)cc1Cl` [Compound 179], the IC50 was under 2000 nM.

(Values after US7786137B2, “Bicyclic derivatives as modulators of ion channels” (Vertex Pharmaceuticals Incorporated, priority 2005, dated 2010).)
